# In patent US20240100088A1, “NOVEL FORMULATION FOR TREATING COPPER METABOLISM-ASSOCIATED DISEASES OR DISORDERS” (Alexion Pharmaceuticals, Inc., priority 2021, published 2024):
# “Also recorded” adds a separate entry of the source.
# Key:
# [1] = Phase 1 study, Dose-Proportionality Extension Period: PK of plasma total Mo and PUF Mo (incl. dose-normalized, power model); assay type: in vivo, healthy adult participants; details: any of the treatments evaluated
# Protocol: (§1) The safety and tolerability of the 2 formulations of BC-TTM in healthy participants was also assessed. BC-TTM pharmacokinetics (PK) in plasma as measured via total molybdenum (Mo) and plasma ultrafiltrate (PUF) Mo was determined.
# The Dose-Proportionality Extension Period was a re-randomized, open-label, parallel group design to assess the dose-proportionality between 2.5 mg (2×1.25 mg), 5 mg (4×1.25 mg), 10 mg (8×1.25 mg), and 30 mg (24×1.25 mg) EC mini-tablet doses. The 15 mg (12×1.25 mg) dose was not repeated during the Dose-Proportionality Extension Period.
# The Dose-Proportionality Extension Period was conducted following completion of the Two-way Crossover Period of the study and after an at least 14-day washout period. Participants were re-randomized as follows: • Treatment C (N=10-12): BC-TTM 2.5 mg (2×1.25 mg EC mini-tablets) • Treatment D (N=10-12): BC-TTM 5 mg (4×1.25 mg EC mini-tablets) • Treatment E (N=10-12): BC-TTM 10 mg (8×1.25 mg EC mini-tablets) • Treatment F (N=10-12): BC-TTM 30 mg (24×1.25 ma EC mini-tablets)
# The dose-proportionality evaluation included data obtained from Treatment A of the Two-way Crossover Period (12×1.25 mg EC mini-tablets) to represent a dose of 15 mg,
# Re-randomized treatment assignment were based on Baseline body mass index (BMI). Two strata for Baseline BM (<25, 25 to <32 kg/m^2) were used. […]
# [2] = Phase 1 study: safety and tolerability (TEAEs, TESAEs, clinical laboratory); assay type: in vivo, healthy adult participants
# Protocol: as §1
smiles,measurement,setting,value
"C[N+](C)(C)CCO.C[N+](C)(C)CCO.[SH-].[SH-].[S]=[Mo]=[S] [BC-TTM, Bis-choline tetrathiomolybdate]",effect of body weight or BMI on BC-TTM PK,[1],apparently not affected; also recorded: There was no apparent effect of body
same,deaths or TESAEs,[2]; all treatments,No deaths or TESAEs were reported
same,severity of TEAEs,"[2]; all treatments, except 2 Grade 4 events after Treatment B","All TEAEs were Grade 1 or 2 in severity,"
same,safety profile and tolerability,[2]; single oral dose 2.5 mg to 30 mg as EC mini-tablets and as a 15 mg EC tablet,acceptable safety profile and was generally well-tolerated
